From patent publication US10130590B2, “Methods of treating cancer with atovaquone-related compounds” (DANA-FARBER CANCER INSTITUTE, INC., priority 2013, dated 2018)

Key:
STAT3 [1] = test: STAT3-luc reporter cells, IL-6 stimulated luciferase; assay type: cell-based; conditions: 10, 20, 30, or 40 μM for 1 hour, then IL-6 (10 ng/ml) 5 hours; relative to controls
Protocol: (§1) Western blotting was performed as previously described (Battle T E, Arbiser J, & Frank D A (2005) The natural product honokiol induces caspase dependent apoptosis in B-cell chronic lymphocytic leukemia (B-CLL) cells. Blood 106(2):690-697). Antibodies to phospho-MAPK (9101), total MAPK (9102), phospho-Y705 STAT3 (9131), phospho-S6 (2215), total S6 (2217), phospho-4E-BP1 (9451), total 4E-BP1 (9644), total RSK (9355), phospho-S6K (9234, 85 used at 1:5000), total S6K (2708), phospho-eIF2α (9721, used at 1:1000), total eIF2α (5324), ATF4 (11815, used at 1:1000), PDGFRβ (3169), IGF1Rβ (9750), EGFR (2232), and HER2 (2242) were from Cell Signaling Technology. Phospho-RSK antibody was from R&D (AF889). Antibodies to total STAT3 (sc-482) and gp130 (sc-656, used at 1:1000) were from Santa Cruz Biotechnology. Phospho-S727 STAT3 antibody was described previously (229). REDD1 antibody was from Proteintech (10638-1-AP, used at 1:1000). Antibody recognizing full-length and cleaved ATF6 was from Abcam (ab122897, used at 1:1000). Antibodies to tubulin (T5168) and beta actin (A5316) were from Sigma. All antibodies were used at 1:10000 dilution for western blot unless otherwise noted. For immunoprecipitations, cells were lysed in 500 μl lysis buffer (0.5% NP-40, 150 mM NaCl, 50 mM Tris pH 7.5, with protease and phosphatase inhibitors freshly added at 1:100 [Pierce, PI78443]) on ice for 15 minutes, then centrifuged for 10 minutes at 14,000 RPM and 4° C. The supernatant was transferred to a new tube and incubated with 10 μl JAK2 antibody (Santa Cruz sc-278) or a mix of two TYK2 antibodies, 10 μl of each (Santa Cruz sc-5271 and Cell Signaling Technology 9312). Immunoprecipitation was performed overnight at 4° C. with rotation. The next day, 75 μl of protein A/G beads (Santa Cruz sc-2003) were washed twice in lysis buffer, then incubated with immunoprecipitates overnight as before. The next day, the beads were spun down (1 min. at 7,500 RPM and 4° C.) and washed 3 times with 650 μl lysis buffer for 10 minutes at 4° C. with rotation, then boiled in 50 μl sample buffer+10% β-mercaptoethanol. For Western blot, 20 μl were loaded per lane. For detection of phospho-tyrosine, a mixture of two pan-phospho-tyrosine antibodies (Cell Signaling Technology 9411 and 9416, 1:1000 of each) was used. Antibody to phospho-Y1007/1008 JAK2 was from Cell Signaling 86 Technology (3771, used at 1:1000). Antibody to phospho-Y570 JAK2 was from Millipore (09-241, used at 1:1000). Luminometric Assays Luciferase reporter cell lines were described previously (186). Firefly luciferase values were normalized by concurrent cell viability. Cell viability was measured as ATP-dependent luminescence by Cell Titer Glo (Promega).
To determine if atovaquone inhibits STAT3, it was tested in a cell-based reporter system of STAT3 transcriptional activity (Nelson E A, et al. (2008) Nifuroxazide inhibits survival of multiple myeloma cells by directly inhibiting STAT3. Blood 112(13):5095-5102). These cells lack basal STAT3 activation; upon IL-6 treatment, STAT3 becomes activated and drives transcription of a STAT3-dependent luciferase reporter gene. […] Activity of firefly luciferase was measured and normalized by cell viability (Cell Titer Glo). […]
STAT3-luc reporter cells were pre-treated with atovaquone, buparvaquone or TDBHN (concentration 10, 20, 30, or 40 μM) for 1 hour, then stimulated with IL-6 (10 ng/ml) for 5 hours. The activity of firefly luciferase was measured and normalized by cell viability (Cell Titer Glo).

STAT3 [2] = test: Western blot of STAT3 phosphorylation in reporter and cancer cell lines; assay type: cell-based, human; conditions: U266, 2.5 hours; for STAT3 phosphorylation (analogs): buparvaquone 12.5 or 25 μM, Sigma analog 1, 5, or 25 μM, relative to vehicle; for STAT3 phosphorylation with UPR activators: tunicamycin 5 μg/ml, thapsigargin 1 μM, brefeldin A 3 μg/ml
Protocol: as §1
The mechanism by which atovaquone inhibits STAT3 was investigated. STAT3-luc reporter cells were pre-treated with atovaquone (20 μM) for 1 hr, and then stimulated with IL-6 (10 ng/ml) for 15 minutes, 30 minutes, 1 hours, or 2 hours. Since STAT3 transcriptional activity is critically dependent on tyrosine phosphorylation, Western blotting was performed to see if atovaquone affected STAT3 phosphorylation. […] Next, atovaquone was used to treat U266 (2.5 hours), HEL (6 hours), or INA-6 cells (4 hours). […] In U266 and INA-6 cells, the source of STAT3 activation is JAK-dependent IL-6 signaling, while in HEL cells, STAT3 is activated by mutant JAK2-V617F. Given that atovaquone inhibits constitutive STAT3 activation in cancer cells, it was asked whether atovaquone inhibits expression of endogenous STAT3 target genes in this context.
Since atovaquone reduced gp130 expression at the cell surface, it was asked whether this effect was accompanied by reduced total gp130 in the cell. To address this question, a time course of atovaquone treatment was performed and total cellular gp130 was measured by Western blotting in U266 cells treated with atovaquone at 20 μM. […]

mTOR pathway = test: Western blot of mTOR pathway markers (S6, S6K, 4E-BP1); assay type: cell-based; conditions: U266, 2.5 hours; buparvaquone 12.5 or 25 μM, Sigma analog 1, 5, or 25 μM; relative to vehicle
Protocol: as §1
K562 cells were treated with atovaquone (20 μM) or rapamycin (10 nM) for 1 hour or 5 hours, then analyzed by Western blot. […] The requirement for prolonged treatment to observe mTOR inhibition raised the possibility that this effect was mediated by an induced factor. To test this hypothesis, cells were pretreated with cycloheximide, a protein synthesis inhibitor. K562 cells were pre-treated with vehicle or cycloheximide (2 μg/ml) for 1 hour, then treated with vehicle or atovaquone (20 μM) for 5 hours. […] Similar results were obtained with actinomycin D, an inhibitor of mRNA synthesis.
To evaluate the role of REDD1, RNA interference was used to knock down its expression in adherent SKBR3 cells, given the relative ease of introducing siRNA into these cells. SKBR3 cells were transfected with control or REDD1 siRNA for 48 hours, then treated with atovaquone (25 μM) for 4 hours.
Next, U266 cells were treated with 12.5 or 25 μM buparvaquone or 1, 5, or 25 μM 2-(4-(trans-decahydronaphth-2-yl)butyl)-3-hydroxy-1,4-naphthoquinone (Sigma analog), or DMSO vehicle control, for 2.5 hours, after which cells were harvested and immunoblots were performed with antibodies for total and phospho STAT3 and total and phospho S6.

gp130 = test: Flow cytometry of cell-surface gp130; assay type: cell-based; conditions: U266, 2.5 hours; atovaquone 20 μM, JAK inhibitor 1 1 μM, brefeldin A 3 μg/ml
Protocol: (§2) Annexin V/PI staining was performed using Annexin V:FITC Apoptosis Detection Kit I (BD Biosciences). Staining for cell cycle analysis was performed as previously described (267). Staining for cell-surface receptors was performed in 50 μl PBS+2% FBS with 2 μl antibody to IL6R (BioLegend #352803) or 5 μl antibody to gp130 (BD Biosciences #555757) for 20 minutes on ice in the dark. Cells were washed twice, then resuspended in 300 μl of the same buffer. Samples were analyzed on a BD FACSCanto II machine. Transfection and siRNA Cells were reverse-transfected using Lipofectamine RNAiMAX (Invitrogen); the culture medium was changed 24 hours later. Control siRNA (D-001210-02) and REDD1 siRNA (M-010855-01) were from Thermo Scientific Dharmacon.
Since atovaquone reduced gp130 expression at the cell surface, it was asked whether this effect was accompanied by reduced total gp130 in the cell. To address this question, a time course of atovaquone treatment was performed and total cellular gp130 was measured by Western blotting in U266 cells treated with atovaquone at 20 μM. […] Thus, it was surmised that atovaquone also rapidly downregulates cell-surface gp130, paralleling STAT3 inhibition and preceding the decrease in total gp130. […] Loss of cell-surface gp130 may be due to decreased entry into the plasma membrane or increased internalization. In either case, the decrease in total gp130 observed at longer time points is likely due to degradation of relatively unstable intracellular gp130.

IL-6 receptor = test: Flow cytometry of cell-surface IL-6 receptor; assay type: cell-based, human; conditions: U266, 2.5 hours; atovaquone 20 μM, brefeldin A 3 μg/ml
Protocol: as §2

| Compound | STAT-3 reporter gene expression (STAT3 [1]) | STAT3 phosphorylation (analogs) (STAT3 [2]) | S6 phosphorylation (analogs) (mTOR pathway) | cell-surface expression of gp130 (gp130) | STAT3 phosphorylation with UPR activators (STAT3 [2]) | further results |
| --- | --- | --- | --- | --- | --- | --- |
| O=C1C(O)=C(CCCCC2CC[C@H]3CCCC[C@@H]3C2)C(=O)c2ccccc21 (relative stereo) [TDBHN, 2-(4-(trans-decahydronaphth-2-yl)butyl)-3-hydroxy-1,4-naphthoquinone] | inhibited STAT-3 reporter gene expression | inhibited STAT3 and S6 phosphorylation at all concentrations tested | inhibited STAT3 and S6 phosphorylation at all concentrations tested |  |  |  |
| CC(C)(C)c1nc2c3cc[nH]c(=O)c3c3cc(F)ccc3c2[nH]1 [JAK inhibitor 1] |  |  |  | did not affect gp130 expression |  |  |
| C/C=C(/C)C(=O)O[C@H]1C(C)=C2[C@H]([C@@H]1OC(=O)CCCCCCC)[C@@](C)(OC(C)=O)C[C@H](OC(=O)CCC)[C@@]1(O)[C@H]2OC(=O)[C@@]1(C)O [Thapsigargin] |  |  |  |  | only brefeldin A decreased STAT3 phosphorylation |  |
| C[C@H]1CCC/C=C/[C@@H]2C[C@H](O)C[C@H]2[C@H](O)/C=C/C(=O)O1 [brefeldin A] |  |  |  | reduced the cell surface expression of both gp130 and IL-6 receptor | decreased STAT3 phosphorylation | cell-surface expression of IL-6 receptor (IL-6 receptor): reduced the cell surface expression of both gp130 and IL-6 receptor |
| CC(C)(C)C1CCC(CC2=C(O)C(=O)c3ccccc3C2=O)CC1 (stereo not drawn) [buparvaquone, 2((4-tert-butylcyclohexyl)methyl)-3-hydroxy-1,4-naphthoquinone] | inhibited STAT-3 reporter gene expression | inhibited STAT3 and S6 phosphorylation at all concentrations tested | inhibited STAT3 and S6 phosphorylation at all concentrations tested |  |  |  |
| Tunicamycin |  |  |  |  | only brefeldin A decreased STAT3 phosphorylation |  |
